Test results as given in patent US12180207B2 (ARRAY BIOPHARMA INC., priority 2018, dated 2024).

Assays:
[1] = target: dephosphorylated FGFR2 (Homo sapiens (Human), UniProt P21802); experiment: FGFR enzyme binding assay (HTRF tracer displacement), FGFR2; details: 5 nM dephosphorylated FGFR2, average of multiple determinations if made
Experimental: The potency of compounds inhibiting human isoforms of FGFR kinase was determined using Life Technologies' Homogeneous Time Resolved Fluorescence (HTRF)-based binding assay technology. […] After a 60 minute incubation at 22° C., the extent of tracer displacement was determined using a PerkinElmer EnVision multimode plate reader via HTRF dual wavelength detection, and the percent of control (POC) was calculated using a ratiometric emission factor. One hundred POC was determined using no test compound, and 0 POC was determined in the presence of 1 μM of an appropriate control inhibitor.

[2] = target: recombinant human FGFR3 (amino acids R397-T806) (Homo sapiens (Human), UniProt P22607); experiment: FGFR3 enzyme activity assay (LanthaScreen TR-FRET); type: biochemical; details: 25 μM ATP, 10 min incubation at 22° C., average of multiple determinations if made, read-out: FGFR3 Enz FRET IC50
Chain of recombinant human FGFR3 (amino acids R397-T806) (P22607 397-806): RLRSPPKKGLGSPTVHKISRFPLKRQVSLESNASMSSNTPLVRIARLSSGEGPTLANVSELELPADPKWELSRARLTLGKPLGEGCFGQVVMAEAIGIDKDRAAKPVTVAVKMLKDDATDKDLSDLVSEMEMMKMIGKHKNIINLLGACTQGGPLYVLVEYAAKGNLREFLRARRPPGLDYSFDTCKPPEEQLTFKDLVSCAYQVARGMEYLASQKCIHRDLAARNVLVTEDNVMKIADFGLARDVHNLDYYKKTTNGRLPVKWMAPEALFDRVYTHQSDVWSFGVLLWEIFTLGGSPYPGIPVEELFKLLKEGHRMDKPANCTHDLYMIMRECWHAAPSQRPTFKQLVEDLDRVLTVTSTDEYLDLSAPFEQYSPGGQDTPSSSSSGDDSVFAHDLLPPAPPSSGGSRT
Method in brief: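 GST-HIS6-tagged human FGFR3 (R397-T806) was reacted with 100 nM Alexa Fluor 647-Poly-GT substrate and 25 μM ATP plus compound in HEPES/MgCl2/Triton buffer, pH 7.5, 2% DMSO, for 10 min at 22 °C.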

[3] = target: HEK-293 cells transfected with dox-inducible human wild type FGFR1 (Homo sapiens (Human), UniProt P11362); experiment: FGFR1 pERK cell assay; type: cell-based; details: HEK-293 dox-inducible FGFR1, 1 hour compound, 100 ng/ml FGF-acidic; maximum concentration 5 μM
Chain of HEK-293 cells transfected with dox-inducible human wild type FGFR1 (P11362 22-822): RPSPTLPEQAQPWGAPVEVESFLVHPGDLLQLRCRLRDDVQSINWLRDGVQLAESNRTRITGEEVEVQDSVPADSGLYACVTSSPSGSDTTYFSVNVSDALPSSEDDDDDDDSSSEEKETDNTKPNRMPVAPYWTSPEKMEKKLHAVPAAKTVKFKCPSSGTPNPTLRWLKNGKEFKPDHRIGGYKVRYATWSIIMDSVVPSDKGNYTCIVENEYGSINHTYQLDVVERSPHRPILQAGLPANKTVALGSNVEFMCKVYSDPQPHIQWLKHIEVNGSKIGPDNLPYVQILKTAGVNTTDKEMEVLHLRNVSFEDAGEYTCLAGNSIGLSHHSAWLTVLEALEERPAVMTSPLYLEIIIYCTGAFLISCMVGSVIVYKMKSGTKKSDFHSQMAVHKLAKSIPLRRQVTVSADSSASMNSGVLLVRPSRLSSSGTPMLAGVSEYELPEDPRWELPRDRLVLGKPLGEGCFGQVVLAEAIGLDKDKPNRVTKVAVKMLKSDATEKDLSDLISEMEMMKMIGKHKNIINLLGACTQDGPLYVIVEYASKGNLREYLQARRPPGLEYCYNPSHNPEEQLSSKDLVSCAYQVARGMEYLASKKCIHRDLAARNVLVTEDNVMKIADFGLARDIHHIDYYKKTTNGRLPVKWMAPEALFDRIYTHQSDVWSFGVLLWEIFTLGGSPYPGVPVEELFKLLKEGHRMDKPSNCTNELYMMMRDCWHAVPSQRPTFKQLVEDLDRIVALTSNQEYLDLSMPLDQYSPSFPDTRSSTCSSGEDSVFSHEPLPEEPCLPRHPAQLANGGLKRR
Method in brief: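 In HEK-293 cells with dox-induced human wild-type FGFR1, compounds (1:3 dilutions, top 5 μM final) were applied 1 h at 37°C before 5 min stimulation with 100 ng/ml FGF-acidic. Phospho-ERK1/2 measured by MSD sandwich immunoassay; IC50 from 4-parameter fit of POC versus vehicle and control compound.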

[4] = target: HEK-293 cells transfected with dox-inducible human wild type FGFR3 (Homo sapiens (Human), UniProt P22607); experiment: FGFR3 pERK cell assay; type: cell-based; details: HEK-293 dox-inducible FGFR3, 1 hour compound, 100 ng/ml FGF-acidic; maximum concentration 5 μM
Chain of HEK-293 cells transfected with dox-inducible human wild type FGFR3 (P22607 23-806): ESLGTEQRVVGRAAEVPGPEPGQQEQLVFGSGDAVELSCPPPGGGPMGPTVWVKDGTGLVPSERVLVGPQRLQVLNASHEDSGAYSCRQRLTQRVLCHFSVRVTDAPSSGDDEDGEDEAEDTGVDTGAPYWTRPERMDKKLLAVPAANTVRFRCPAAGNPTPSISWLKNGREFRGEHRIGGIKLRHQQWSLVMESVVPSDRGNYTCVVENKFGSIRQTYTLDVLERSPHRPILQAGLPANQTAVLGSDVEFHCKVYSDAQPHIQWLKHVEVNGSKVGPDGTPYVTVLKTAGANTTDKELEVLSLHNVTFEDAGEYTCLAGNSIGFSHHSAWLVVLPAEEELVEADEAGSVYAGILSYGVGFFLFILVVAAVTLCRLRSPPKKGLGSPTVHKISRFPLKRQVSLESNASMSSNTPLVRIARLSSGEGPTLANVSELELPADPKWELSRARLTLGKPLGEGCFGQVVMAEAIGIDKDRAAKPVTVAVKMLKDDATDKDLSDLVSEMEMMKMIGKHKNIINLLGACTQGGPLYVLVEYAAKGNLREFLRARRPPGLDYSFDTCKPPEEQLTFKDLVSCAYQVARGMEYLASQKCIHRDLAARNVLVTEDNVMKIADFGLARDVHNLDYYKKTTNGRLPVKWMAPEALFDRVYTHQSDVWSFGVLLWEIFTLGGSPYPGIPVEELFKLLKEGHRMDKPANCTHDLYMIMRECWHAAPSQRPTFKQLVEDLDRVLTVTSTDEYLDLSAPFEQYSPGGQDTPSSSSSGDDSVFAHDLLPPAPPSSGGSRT
Method in brief: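 Doxycycline-induced cells preincubated 1 h at 37 °C with compound (1:3 dilutions, top 5 μM final), then stimulated 5 min with 100 ng/ml FGF-acidic. Lysate phospho-ERK1/2 measured by MSD sandwich assay; IC50 at 50 POC from 4-parameter fit, normalised to no-compound and control-compound wells.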

Chain of dephosphorylated FGFR2 (P21802 22-821): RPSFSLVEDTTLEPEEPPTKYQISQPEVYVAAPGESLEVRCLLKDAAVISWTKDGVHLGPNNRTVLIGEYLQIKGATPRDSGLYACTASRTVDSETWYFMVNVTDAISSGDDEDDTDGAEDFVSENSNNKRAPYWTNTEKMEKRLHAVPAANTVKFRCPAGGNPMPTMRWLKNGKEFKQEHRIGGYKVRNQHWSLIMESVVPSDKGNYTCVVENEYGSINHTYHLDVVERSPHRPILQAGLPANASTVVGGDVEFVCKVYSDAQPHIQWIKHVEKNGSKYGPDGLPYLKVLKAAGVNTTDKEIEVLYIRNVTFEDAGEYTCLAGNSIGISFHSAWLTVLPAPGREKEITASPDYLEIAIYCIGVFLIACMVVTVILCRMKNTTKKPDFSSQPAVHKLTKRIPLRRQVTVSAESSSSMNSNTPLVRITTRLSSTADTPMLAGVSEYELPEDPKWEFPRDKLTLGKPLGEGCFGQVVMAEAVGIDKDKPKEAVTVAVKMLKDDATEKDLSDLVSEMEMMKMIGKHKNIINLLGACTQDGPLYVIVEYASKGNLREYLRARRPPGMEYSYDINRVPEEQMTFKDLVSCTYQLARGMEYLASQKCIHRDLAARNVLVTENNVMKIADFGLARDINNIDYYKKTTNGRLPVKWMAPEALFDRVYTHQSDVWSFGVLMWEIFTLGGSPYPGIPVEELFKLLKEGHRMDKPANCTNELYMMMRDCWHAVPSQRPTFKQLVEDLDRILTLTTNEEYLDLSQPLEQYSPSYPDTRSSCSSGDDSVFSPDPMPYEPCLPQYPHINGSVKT

`C=CC(=O)N1CC(OC)(C(=O)N2CCC(n3nc(C)c(-c4cc(OC)c5c(C#N)cnn5c4)c3C)CC2)C1` [Example 95, 6-(1-(1-(1-acryloyl-3-methoxyazetidine-3-carbonyl)piperidin-4-yl)-3,5-dimethyl-1H-pyrazol-4-yl)-4-methoxypyrazolo[1,5-a]pyridine-3-carbonitrile] was tested, and the IC50 [1] was 0.155 µM, the IC50 [2] was 0.103 µM and the IC50 [3] was 1.07 µM. It also gave an IC50 [4] of 0.098 µM.
For `C=CC(=O)N1CC(C(=O)N2CCC3(CC2)CN(c2ccc(-c4cc(OC)c5c(C#N)cnn5c4)cn2)C3)C1` [Example 102, 6-(6-(7-(1-acryloylazetidine-3-carbonyl)-2,7-diazaspiro[3.5]nonan-2-yl)pyridin-3-yl)-4-methoxypyrazolo[1,5-a]pyridine-3-carbonitrile], the IC50 [1] was 0.022 µM, the IC50 [2] was 0.022 µM and the IC50 [3] was 0.239 µM. The IC50 [4] was 0.044 µM.
With `C=CC(=O)N1CC(C(=O)N2CCC3(C2)CN(c2ccc(-c4cc(OC)c5c(C#N)cnn5c4)cn2)C3)C1` [Example 103, 6-(6-(6-(1-acryloylazetidine-3-carbonyl)-2,6-diazaspiro[3.4]octan-2-yl)pyridin-3-yl)-4-methoxypyrazolo[1,5-a]pyridine-3-carbonitrile] the IC50 [1] was 0.039 µM, the IC50 [2] was 0.02 µM and the IC50 [3] was 0.573 µM. The IC50 [4] was 0.137 µM.
Compound `C=CC(=O)N1CC(C(=O)N2CC3(C2)CN(c2ccc(-c4cc(OC)c5c(C#N)cnn5c4)cn2)C3)C1` [Example 104, 6-(6-(6-(1-acryloylazetidine-3-carbonyl)-2,6-diazaspiro[3.3]heptan-2-yl)pyridin-3-yl)-4-methoxypyrazolo[1,5-a]pyridine-3-carbonitrile] has an IC50 [1] of 0.045 µM, an IC50 [2] of 0.02 µM and an IC50 [3] of 1.11 µM. It also gave an IC50 [4] of 0.146 µM.
In the case of `C=CC(=O)N1CC(C(=O)N2CC3CC(C2)N3c2ccc(-c3cc(OC)c4c(C#N)cnn4c3)cn2)C1` [Example 105, 6-(6-(3-(1-acryloylazetidine-3-carbonyl)-3,6-diazabicyclo[3.1.1]heptan-6-yl)pyridin-3-yl)-4-methoxypyrazolo[1,5-a]pyridine-3-carbonitrile], the IC50 [1] is reported as 0.226 µM, the IC50 [2] is reported as 0.125 µM and the IC50 [3] is reported as 3.96 µM. For the same compound, the IC50 [4] was 2.66 µM.
`C=CC(=O)N1CC(C(=O)N2C[C@@H]3C[C@H]2CN3c2ccc(-c3cc(OC)c4c(C#N)cnn4c3)cn2)C1` [Example 106, 6-(6-((1S,4S)-5-(1-acryloylazetidine-3-carbonyl)-2,5-diazabicyclo[2.2.1]heptan-2-yl)pyridin-3-yl)-4-methoxypyrazolo[1,5-a]pyridine-3-carbonitrile] was tested, and the IC50 [1] was 0.03 µM, the IC50 [2] was 0.025 µM and the IC50 [3] was 0.955 µM. For the same compound, the IC50 [4] was 0.244 µM.
In the case of `C=CC(=O)N1CC(C(=O)N2C[C@H]3C[C@@H]2CN3c2ccc(-c3cc(OC)c4c(C#N)cnn4c3)cn2)C1` [Example 107, 6-(6-((1R,4R)-5-(1-acryloylazetidine-3-carbonyl)-2,5-diazabicyclo[2.2.1]heptan-2-yl)pyridin-3-yl)-4-methoxypyrazolo[1,5-a]pyridine-3-carbonitrile], the IC50 [1] is reported as 0.056 µM, the IC50 [2] is reported as 0.027 µM and the IC50 [3] is reported as 1.35 µM. For the same compound, the IC50 [4] was 0.355 µM.
With `C=CC(=O)N1CC(CN2C[C@H]3C[C@@H]2CN3c2ccc(-c3cc(OC)c4c(C#N)cnn4c3)cn2)C1` [Example 108, 6-(6-((1R,4R)-5-((1-acryloylazetidin-3-yl)methyl)-2,5-diazabicyclo[2.2.1]heptan-2-yl)pyridin-3-yl)-4-methoxypyrazolo[1,5-a]pyridine-3-carbonitrile] the IC50 [1] was 0.028 µM, the IC50 [2] was 0.01 µM and the IC50 [3] was 0.116 µM. The IC50 [4] was 0.047 µM.
Compound `C=CC(=O)N1CC(F)(C(=O)N2CCN(c3ccc(-c4cc(OC)c5c(C#N)cnn5c4)cn3)CC2)C1` [Example 112, 6-(6-(4-(1-acryloyl-3-fluoroazetidine-3-carbonyl)piperazin-1-yl)pyridin-3-yl)-4-methoxypyrazolo[1,5-a]pyridine-3-carbonitrile] has an IC50 [1] of 0.016 µM, an IC50 [2] of 0.02 µM and an IC50 [3] of 0.122 µM. The IC50 [4] was 0.021 µM.
